Earlier results in patent US9000165B2 (priority 2011, dated 2015).

Tests used:
[1] = test system: α1-adrenaline agonist receptors
[2] = biological target: T1, serotonin 5-HT2C receptors (Homo sapiens, UniProt P28335)
T1 sequence (P28335 33-458): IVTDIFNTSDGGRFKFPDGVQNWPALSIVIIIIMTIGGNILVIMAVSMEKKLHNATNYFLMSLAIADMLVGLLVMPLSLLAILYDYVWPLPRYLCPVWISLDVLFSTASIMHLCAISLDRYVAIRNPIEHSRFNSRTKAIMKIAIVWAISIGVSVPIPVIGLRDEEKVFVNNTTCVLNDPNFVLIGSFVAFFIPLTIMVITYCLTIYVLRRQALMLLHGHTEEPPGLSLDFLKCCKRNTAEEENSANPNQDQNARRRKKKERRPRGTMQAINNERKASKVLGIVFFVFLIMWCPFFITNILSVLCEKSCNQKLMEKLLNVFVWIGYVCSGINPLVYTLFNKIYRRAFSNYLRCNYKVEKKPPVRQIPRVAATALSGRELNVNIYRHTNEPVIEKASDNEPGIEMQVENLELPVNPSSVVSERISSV

serotonin reuptake sites = serotonin reuptake sites (Homo sapiens, UniProt P31645)
[3] = test system: cholinergic muscarinic receptors
[4] = biological target: T2, serotonin 5-HT1A receptors (Homo sapiens, UniProt P08908)
T2 sequence (P08908 1-422): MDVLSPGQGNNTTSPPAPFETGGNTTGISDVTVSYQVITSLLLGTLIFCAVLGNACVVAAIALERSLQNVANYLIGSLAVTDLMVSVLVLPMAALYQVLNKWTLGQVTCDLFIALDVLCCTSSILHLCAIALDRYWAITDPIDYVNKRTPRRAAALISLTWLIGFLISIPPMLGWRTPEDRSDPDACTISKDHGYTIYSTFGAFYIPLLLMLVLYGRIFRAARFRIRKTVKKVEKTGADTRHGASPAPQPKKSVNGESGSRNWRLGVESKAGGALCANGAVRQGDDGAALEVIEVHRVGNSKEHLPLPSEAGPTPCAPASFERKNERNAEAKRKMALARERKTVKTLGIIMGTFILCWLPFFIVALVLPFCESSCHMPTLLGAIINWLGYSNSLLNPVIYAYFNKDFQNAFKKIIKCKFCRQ

histamine H1 receptors = histamine H1 receptors (Homo sapiens, UniProt P35367)
[5] = biological target: serotonin 5-HT2A receptors (Homo sapiens, UniProt P28223)
[6] = upon exposure to moisture converts into the hydrate form

histamine H1 receptors, sequence (P35367 whole entry): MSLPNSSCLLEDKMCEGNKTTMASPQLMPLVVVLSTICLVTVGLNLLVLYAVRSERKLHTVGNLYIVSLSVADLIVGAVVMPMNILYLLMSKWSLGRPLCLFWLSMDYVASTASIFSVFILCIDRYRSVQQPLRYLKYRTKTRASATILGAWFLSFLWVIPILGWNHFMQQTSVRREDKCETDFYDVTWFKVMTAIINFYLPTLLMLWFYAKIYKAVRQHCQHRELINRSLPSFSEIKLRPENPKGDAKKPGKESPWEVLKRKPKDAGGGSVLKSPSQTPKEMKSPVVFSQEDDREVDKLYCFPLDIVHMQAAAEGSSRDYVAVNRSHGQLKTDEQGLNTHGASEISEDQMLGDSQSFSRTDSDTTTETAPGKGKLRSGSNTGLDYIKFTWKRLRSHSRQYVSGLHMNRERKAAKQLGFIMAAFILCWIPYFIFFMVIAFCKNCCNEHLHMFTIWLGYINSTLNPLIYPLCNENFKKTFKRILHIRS
serotonin 5-HT2A receptors, sequence (P28223 whole entry): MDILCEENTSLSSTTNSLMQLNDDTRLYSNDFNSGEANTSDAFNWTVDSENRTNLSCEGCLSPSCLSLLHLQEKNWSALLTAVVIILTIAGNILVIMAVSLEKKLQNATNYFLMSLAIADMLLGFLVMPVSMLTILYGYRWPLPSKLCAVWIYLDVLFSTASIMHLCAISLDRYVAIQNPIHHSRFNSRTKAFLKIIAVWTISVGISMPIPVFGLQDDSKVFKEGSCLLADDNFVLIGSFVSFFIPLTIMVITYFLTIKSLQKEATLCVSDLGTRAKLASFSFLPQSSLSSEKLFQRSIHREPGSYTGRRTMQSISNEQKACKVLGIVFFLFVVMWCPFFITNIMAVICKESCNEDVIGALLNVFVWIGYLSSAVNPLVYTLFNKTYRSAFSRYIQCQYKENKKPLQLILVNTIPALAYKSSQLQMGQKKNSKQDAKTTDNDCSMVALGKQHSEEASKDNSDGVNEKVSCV
serotonin reuptake sites, sequence (P31645 whole entry): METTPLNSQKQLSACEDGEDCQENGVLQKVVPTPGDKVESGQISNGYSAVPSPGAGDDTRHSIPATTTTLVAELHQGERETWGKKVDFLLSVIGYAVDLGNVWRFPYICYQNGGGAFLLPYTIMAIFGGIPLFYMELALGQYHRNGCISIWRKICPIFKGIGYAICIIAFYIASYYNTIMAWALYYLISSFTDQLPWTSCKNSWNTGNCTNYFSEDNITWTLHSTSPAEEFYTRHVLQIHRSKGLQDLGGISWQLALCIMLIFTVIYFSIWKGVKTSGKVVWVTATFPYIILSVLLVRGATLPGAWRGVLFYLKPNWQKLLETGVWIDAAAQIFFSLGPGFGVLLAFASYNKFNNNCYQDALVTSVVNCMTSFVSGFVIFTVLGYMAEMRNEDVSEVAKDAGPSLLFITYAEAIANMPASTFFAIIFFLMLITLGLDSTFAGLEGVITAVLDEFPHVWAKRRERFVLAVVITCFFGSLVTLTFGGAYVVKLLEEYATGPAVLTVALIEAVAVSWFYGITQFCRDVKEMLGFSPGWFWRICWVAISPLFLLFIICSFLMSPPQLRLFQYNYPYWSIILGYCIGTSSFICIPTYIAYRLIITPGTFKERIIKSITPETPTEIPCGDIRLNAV

| SMILES | affinity for α1-adrenaline agonist receptors [1] | affinity for serotonin 5-HT2C receptors [2] | affinity for serotonin reuptake sites (serotonin reuptake sites) | affinity for cholinergic muscarinic receptors [3] | affinity for serotonin 5-HT1A receptors [4] | affinity for histamine H1 receptors (histamine H1 receptors) | affinity for serotonin 5-HT2A receptors [5] | hygroscopic property [6] |
| --- | --- | --- | --- | --- | --- | --- | --- | --- |
| O=C1CCc2ccc(OCCCCN3CCN(c4cccc(Cl)c4Cl)CC3)cc2N1 [Aripiprazole] | mild affinity | mild affinity | mild affinity | no detectable affinity | potent affinity | mild affinity | potent affinity |  |
| O=C1CCc2ccc(OCCCCN3CCN(c4cccc(Cl)c4Cl)CC3)cc2N1 [anhydrous aripiprazole crystal form I, Aripiprazole] |  |  |  |  |  |  |  | significant hygroscopic property |
